Target: DYRK1A (Homo sapiens, UniProt Q13627)
Test: Affinity testing of compounds with DYRK1A (KD)
Type: binding
Settings: DYRK1A affinity key classes

Row | Structure (SMILES) | Kd
1 | Cc1nc2ccc(-c3ccncc3)nc2n1-c1ccc2[nH]ccc2c1 [Compound 136, 3-(1H-indol-5-yl)-2-methyl-5-(pyridin-4-yl)-3H-imidazo[4,5-b]pyridine] | 0.5 to 100 nM
2 | Cc1nc2ccc(-c3ccncc3)nc2n1-c1cnc2[nH]ccc2c1 [Compound 137, 2-methyl-5-(pyridin-4-yl)-3-(1H-pyrrolo[2,3-b]pyridin-5-yl)-3H-imidazo[4,5-b]pyridine] | 0.5 to 100 nM
3 | Cc1nc2cc(-n3c(C)nc4ccc(-c5ccncc5)nc43)ccc2[nH]1 [Compound 138, 2-methyl-3-(2-methyl-1H-benzo[d]imidazol-5-yl)-5-(pyridin-4-yl)-3H-imidazo[4,5-b]pyridine] | 0.5 to 100 nM
4 | Cc1c2cc(-n3c(C)nc4ccc(-c5ccncc5)nc43)ccc2nn1C [Compound 139, 3-(2,3-dimethyl-2H-indazol-5-yl)-2-methyl-5-(pyridin-4-yl)-3H-imidazo[4,5-b]pyridine] | 0.5 to 100 nM
5 | Cc1nc2ccc(-c3ccncc3)nc2n1-c1cccc(CN2CCOCC2)c1 [Compound 140, 4-(3-(2-methyl-5-(pyridin-4-yl)-3H-imidazo[4,5-b]pyridin-3-yl)benzyl)morpholine] | 0.5 to 100 nM
6 | Cc1nc2ccc(-c3ccncc3)nc2n1-c1ccc(Cl)cn1 [Compound 141, 3-(5-chloropyridin-2-yl)-2-methyl-5-(pyridin-4-yl)-3H-imidazo[4,5-b]pyridine] | 0.5 to 100 nM
7 | COc1cc(-n2c(C)nc3ccc(-c4ccncc4)nc32)ccc1CN1CCOCC1 [Compound 142, 4-(2-methoxy-4-(2-methyl-5-(pyridin-4-yl)-3H-imidazo[4,5-b]pyridin-3-yl)benzyl)morpholine] | 101 to 500 nM
8 | Cc1nc2ccc(-c3ccnc4[nH]ccc34)nc2n1-c1ccc(N2CCOCC2)c(F)c1 [Compound 143, 4-(2-fluoro-4-(2-methyl-5-(1H-pyrrolo[2,3-b]pyridin-4-yl)-3H-imidazo[4,5-b]pyridin-3-yl)phenyl)morpholine] | 0.5 to 100 nM
9 | Cc1nc2ccc(-c3ccnc(N)c3)nc2n1-c1ccc(N2CCOCC2)c(F)c1 [Compound 144, 4-(3-(3-fluoro-4-morpholinophenyl)-2-methyl-3H-imidazo[4,5-b]pyridin-5-yl)pyridin-2-amine] | 0.5 to 100 nM
10 | Cc1cc(-c2ccc3nc(C)n(-c4ccc(N5CCOCC5)c(F)c4)c3n2)ccn1 [Compound 145, 4-(2-fluoro-4-(2-methyl-5-(2-methylpyridin-4-yl)-3H-imidazo[4,5-b]pyridin-3-yl)phenyl)morpholine] | 0.5 to 100 nM
11 | Cc1nc2ccc(-c3cnn(C)c3)nc2n1-c1ccc(N2CCOCC2)c(F)c1 [Compound 146, 4-(2-fluoro-4-(2-methyl-5-(1-methyl-1H-pyrazol-4-yl)-3H-imidazo[4,5-b]pyridin-3-yl)phenyl)morpholine] | 0.5 to 100 nM
12 | Cc1nc2ccc(-c3cnn(C4CC4)c3)nc2n1-c1ccc(N2CCOCC2)c(F)c1 [Compound 147, 4-(4-(5-(1-cyclopropyl-1H-pyrazol-4-yl)-2-methyl-3H-imidazo[4,5-b]pyridin-3-yl)-2-fluorophenyl)morpholine] | 0.5 to 100 nM
13 | Cc1nc2ccc(-c3ccnc(N)c3)nc2n1-c1ccc(N2CCOCC2)cc1 [Compound 148, 4-(2-methyl-3-(4-morpholinophenyl)-3H-imidazo[4,5-b]pyridin-5-yl)pyridin-2-amine] | 0.5 to 100 nM
14 | Cc1nc2ccc(-c3ccnc(N)c3)nc2n1-c1ccc(CN2CCOCC2)nc1 [Compound 149, 4-(2-methyl-3-(6-(morpholinomethyl)pyridin-3-yl)-3H-imidazo[4,5-b]pyridin-5-yl)pyridin-2-amine] | 501 to 10000 nM
15 | Cc1nc2ccc(-c3ccnc(N)c3)nc2n1-c1ccc2[nH]ccc2c1 [Compound 150, 4-(3-(1H-indol-5-yl)-2-methyl-3H-imidazo[4,5-b]pyridin-5-yl)pyridin-2-amine] | 0.5 to 100 nM
16 | Cc1nc2ccc(-c3ccnc(N)c3)nc2n1-c1ccc(N2CCN(C)CC2)c(F)c1 [Compound 151, 4-(3-(3-fluoro-4-(4-methylpiperazin-1-yl)phenyl)-2-methyl-3H-imidazo[4,5-b]pyridin-5-yl)pyridin-2-amine] | 0.5 to 100 nM
17 | Cc1nc2ccc(-c3ccnc(N)c3)nc2n1-c1cnc2[nH]ccc2c1 [Compound 152, 4-(2-methyl-3-(1H-pyrrolo[2,3-b]pyridin-5-yl)-3H-imidazo[4,5-b]pyridin-5-yl)pyridin-2-amine] | 0.5 to 100 nM
18 | Cc1nc2ccc(-c3ccnc(N)c3)nc2n1-c1cccc(CN2CCOCC2)c1 [Compound 153, 4-(2-methyl-3-(3-(morpholinomethyl)phenyl)-3H-imidazo[4,5-b]pyridin-5-yl)pyridin-2-amine] | 0.5 to 100 nM
19 | CC(=O)N1CCc2cc(-n3c(C)nc4ccc(-c5ccnc(N)c5)nc43)ccc21 [Compound 154, 1-(5-(5-(2-aminopyridin-4-yl)-2-methyl-3H-imidazo[4,5-b]pyridin-3-yl)indolin-1-yl)ethan-1-one] | 0.5 to 100 nM
20 | Cc1nc2ccc(-c3ccnc(N)c3)nc2n1-c1cccc(CN2C[C@H](C)O[C@@H](C)C2)c1 [Compound 156, 4-(3-(3-(((2S,6S)-2,6-dimethylmorpholino)methyl)phenyl)-2-methyl-3H-imidazo[4,5-b]pyridin-5-yl)pyridin-2-amine] | 0.5 to 100 nM

Row | Structure (SMILES) | Kd
21 | Cc1nc2ccc(-c3ccnc(N)c3)nc2n1-c1cccc(N2CCOCC2)c1 [Compound 157, 4-(2-methyl-3-(3-morpholinophenyl)-3H-imidazo[4,5-b]pyridin-5-yl)pyridin-2-amine] | 0.5 to 100 nM
22 | Cc1nc2ccc(-c3ccnc(N)c3)nc2n1-c1ccc(N2CCOCC2)nc1 [Compound 158, 4-(2-methyl-3-(6-morpholinopyridin-3-yl)-3H-imidazo[4,5-b]pyridin-5-yl)pyridin-2-amine] | 0.5 to 100 nM
23 | Cc1nc2ccc(-c3ccnc(N)c3)nc2n1-c1ccc(CN2CCCCC2)cc1 [Compound 159, 4-(2-methyl-3-(4-(piperidin-1-ylmethyl)phenyl)-3H-imidazo[4,5-b]pyridin-5-yl)pyridin-2-amine] | 0.5 to 100 nM
24 | Cc1nc2ccc(-c3ccnc(N)c3)nc2n1-c1ccc(N2C[C@H]3C[C@H]2CO3)nc1 [Compound 160, 4-(3-(6-((1R,4S)-2-oxa-5-azabicyclo[2.2.1]heptan-5-yl)pyridin-3-yl)-2-methyl-3H-imidazo[4,5-b]pyridin-5-yl)pyridin-2-amine] | 0.5 to 100 nM
25 | Cc1nc2ccc(-c3ccnc(N)c3)nc2n1-c1ccc(N2C[C@@H](C)O[C@@H](C)C2)nc1 [Compound 161, 4-(3-(6-((2S,6R)-2,6-dimethylmorpholino)pyridin-3-yl)-2-methyl-3H-imidazo[4,5-b]pyridin-5-yl)pyridin-2-amine] | 0.5 to 100 nM
26 | Cc1cc(-n2c(C)nc3ccc(-c4ccnc(N)c4)nc32)cnc1N1CCOCC1 [Compound 162, 4-(2-methyl-3-(5-methyl-6-morpholinopyridin-3-yl)-3H-imidazo[4,5-b]pyridin-5-yl)pyridin-2-amine] | 0.5 to 100 nM
27 | Cc1nc2ccc(-c3ccnc(N)c3)nc2n1-c1cnc(N2CCOCC2)c(C2CC2)c1 [Compound 163, 4-(3-(5-cyclopropyl-6-morpholinopyridin-3-yl)-2-methyl-3H-imidazo[4,5-b]pyridin-5-yl)pyridin-2-amine] | 0.5 to 100 nM
28 | Cc1nc2ccc(-c3ccnc(N)c3)nc2n1-c1ccnc(N2CCOCC2)c1 [Compound 164, 4-(2-methyl-3-(2-morpholinopyridin-4-yl)-3H-imidazo[4,5-b]pyridin-5-yl)pyridin-2-amine] | 0.5 to 100 nM
29 | Cc1nc2ccc(-c3ccnc(N)c3)nc2n1-c1cnc(N2CCOCC2)c(Cl)c1 [Compound 166, 4-(3-(5-chloro-6-morpholinopyridin-3-yl)-2-methyl-3H-imidazo[4,5-b]pyridin-5-yl)pyridin-2-amine] | 0.5 to 100 nM
30 | Cc1nc2ccc(-c3ccnc(N)c3)nc2n1-c1ccc(N2CC3CCC(C2)O3)c(F)c1 [Compound 167, 4-(3-(4-(8-oxa-3-azabicyclo[3.2.1]octan-3-yl)-3-fluorophenyl)-2-methyl-3H-imidazo[4,5-b]pyridin-5-yl)pyridin-2-amine] | 0.5 to 100 nM
31 | Cc1nc2ccc(-c3ccnc(N)c3)nc2n1-c1ccc(N2CCOCC2)c(Cl)c1 [Compound 168, 4-(3-(3-chloro-4-morpholinophenyl)-2-methyl-3H-imidazo[4,5-b]pyridin-5-yl)pyridin-2-amine] | 0.5 to 100 nM
32 | Cc1nc2ccc(-c3ccnc(N)c3)nc2n1-c1ccc(N2CCC3(COC3)C2)c(F)c1 [Compound 169, 4-(3-(3-fluoro-4-(2-oxa-6-azaspiro[3.4]octan-6-yl)phenyl)-2-methyl-3H-imidazo[4,5-b]pyridin-5-yl)pyridin-2-amine] | 0.5 to 100 nM
33 | Cc1nc2ccc(-c3ccnc(N)c3)nc2n1-c1ccc(N2CCOC[C@H]2C)c(F)c1 [Compound 170, (R)-4-(3-(3-fluoro-4-(3-methylmorpholino)phenyl)-2-methyl-3H-imidazo[4,5-b]pyridin-5-yl)pyridin-2-amine] | 0.5 to 100 nM
34 | Cc1nc2ccc(-c3ccnc(N)c3)nc2n1-c1ccc(N2CCOC[C@@H]2C)c(F)c1 [Compound 171, (S)-4-(3-(3-fluoro-4-(3-methylmorpholino)phenyl)-2-methyl-3H-imidazo[4,5-b]pyridin-5-yl)pyridin-2-amine] | 0.5 to 100 nM
35 | Cc1nc2ccc(-c3ccnc(N)c3)nc2n1-c1cc(F)c(N2CCOCC2)c(F)c1 [Compound 172, 4-(3-(3,5-difluoro-4-morpholinophenyl)-2-methyl-3H-imidazo[4,5-b]pyridin-5-yl)pyridin-2-amine] | 0.5 to 100 nM
36 | Cc1nc2ccc(-c3ccnc(N)c3)nc2n1-c1ccc(F)c(N2CCOCC2)c1 [Compound 173, 4-(3-(4-fluoro-3-morpholinophenyl)-2-methyl-3H-imidazo[4,5-b]pyridin-5-yl)pyridin-2-amine] | 0.5 to 100 nM
37 | Cc1nc2ccc(-c3ccnc(N)c3)nc2n1-c1ccc2c(c1)CCN2C1CCOCC1 [Compound 174, 4-(2-methyl-3-(1-(tetrahydro-2H-pyran-4-yl)indolin-5-yl)-3H-imidazo[4,5-b]pyridin-5-yl)pyridin-2-amine] | 0.5 to 100 nM
38 | Cc1nc2ccc(-c3ccnc(Cl)c3)nc2n1-c1ccc(CN2CCOCC2)cc1 [Compound 176, 4-(4-(5-(2-chloropyridin-4-yl)-2-methyl-3H-imidazo[4,5-b]pyridin-3-yl)benzyl)morpholine] | 0.5 to 100 nM
39 | Cc1nc2cccnc2n1-c1ccc(CN2CCOCC2)cc1 [Compound 177, 4-(4-(2-methyl-3H-imidazo[4,5-b]pyridin-3-yl)benzyl)morpholine] | 501 to 10000 nM
